Measured values from patent publication US12533394B2, “Compositions and methods for treating metabolic disorders” (GlycoMantra Inc., priority 2023, dated 2026).

How the values were obtained:
[1] = molecular target: T1, Gal3 (Homo sapiens, UniProt P17931); conditions: Table 1, comparison galectin antagonists; cited from earlier work
[2] = molecular target: T1, Gal3; test: Solid-phase assay, blocking Gal3 binding (inhibition curves, FIG. 2)
Text: For the purposes of this disclosure, an “inhibition curve” is a graphical representation used in pharmacology and biochemistry to show how an inhibitor affects the activity of an enzyme, a biological process, or the like. Typically, an inhibition curve plots the concentration of an inhibitor on the x-axis and the corresponding reduction in an enzyme activity (or another measurable response) on the y-axis. An inhibition curve may help visualize the relationship between inhibitor concentration and its effectiveness. As a nonlimiting example, an inhibition curve may be used to determine a half-maximal inhibitory concentration or IC50 value. For the purposes of this disclosure, half-maximal inhibitory concentration or IC50 is the concentration of an inhibitor needed to reduce the activity of a receptor or an enzyme by 50%. A small IC50 value typically indicates a stronger binding affinity between an inhibitor and its target, and vice versa. IC50 is a commonly used indication regarding a drug's efficacy and potency and is often used in pharmacological research. For the purposes of this disclosure, drug potency is the amount of a drug needed to produce a given effect. […] It is often measured using the EC50, i.e., the concentration at which 50% of the maximum effect is observed. […]

T1 sequence (P17931 whole entry, species assumed): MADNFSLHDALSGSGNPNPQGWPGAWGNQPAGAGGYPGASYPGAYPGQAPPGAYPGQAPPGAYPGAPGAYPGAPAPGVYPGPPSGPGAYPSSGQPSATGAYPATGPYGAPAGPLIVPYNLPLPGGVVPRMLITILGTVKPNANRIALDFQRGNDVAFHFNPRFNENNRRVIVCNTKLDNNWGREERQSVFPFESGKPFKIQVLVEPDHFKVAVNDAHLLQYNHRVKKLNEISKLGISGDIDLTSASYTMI

| Structure (SMILES) | Specificity to Gal3 [1] | IC50 [2] [µM] |
| --- | --- | --- |
| OC[C@H]1O[C@@H](S[C@@H]2O[C@H](CO)[C@H](O)[C@H](n3cc(-c4cccc(F)c4)nn3)[C@H]2O)[C@H](O)[C@@H](n2cc(-c3cccc(F)c3)nn2)[C@H]1O [TD139] | No | – |
| CC(=O)N[C@H]1C(O)O[C@H](CO)[C@H](O)[C@@H]1O[C@@H]1O[C@H](CO)[C@H](O)[C@H](O)[C@H]1O (some centres unmarked) [synthetic TFD, Galβ1-3GalNAc] | – | 200 |
